Data taken from ChEMBL document CHEMBL6120963, “Discovery of Novel PROTAC SIRT6 Degraders with Potent Efficacy against Hepatocellular Carcinoma” (J Med Chem, 2024).
The source made the active and inactive calls. No cut-off for these calls is given here.

What was measured:
SK-HEP1 [1] = assay: Downregulation of ANKRD44 expression in human SK-HEP1 cells at 2.5 uM incubated for 36 hrs; format: functional, cell-based
[2] = Toxicity in BALB/c nude mouse xenografted with human SK-HEP1 cells assessed as histopathological abnormalities in spleen at 10 mg/kg treated for 28 to 30 days by H and E staining based analysis; format: organism-based; details: in vivo, time 28-30 day
SK-HEP1 [3] = assay: Effect of CDK15 mRNA expression in human SK-HEP1 cells at 2.5 uM incubated for 36 hrs by RNA sequencing analysis; format: functional, cell-based
[4] = Toxicity in BALB/c nude mouse xenografted with human SK-HEP1 cells assessed as pathological damage in lungs at 10 mg/kg treated for 28 to 30 days in presence of sorafenib by H and E staining based analysis; format: organism-based; details: in vivo, time 28-30 day
[5] = Toxicity in BALB/c nude mouse xenografted with human SK-HEP1 cells assessed as histopathological abnormalities in lungs at 10 mg/kg treated for 28 to 30 days by H and E staining based analysis; format: organism-based; details: in vivo, time 28-30 day
SK-HEP1 [6] = assay: Downregulation of FBXO44 expression in human SK-HEP1 cells at 2.5 uM incubated for 36 hrs in presence of MG132; format: functional, cell-based
[7] = biological target: T1, Protein cereblon/NAD-dependent protein deacylase sirtuin-6 (Homo sapiens, UniProt Q8N6T7+Q96SW2); assay: PROTAC activity at CRBN/SIRT6 in MG132-treated human SK-HEP1 cells assessed as induction of SIRT6 degradation at 2.5 uM treated for 36 hrs by Western blot analysis; format: cell-based
T1 sequence (Q8N6T7 2-355 limits assumed): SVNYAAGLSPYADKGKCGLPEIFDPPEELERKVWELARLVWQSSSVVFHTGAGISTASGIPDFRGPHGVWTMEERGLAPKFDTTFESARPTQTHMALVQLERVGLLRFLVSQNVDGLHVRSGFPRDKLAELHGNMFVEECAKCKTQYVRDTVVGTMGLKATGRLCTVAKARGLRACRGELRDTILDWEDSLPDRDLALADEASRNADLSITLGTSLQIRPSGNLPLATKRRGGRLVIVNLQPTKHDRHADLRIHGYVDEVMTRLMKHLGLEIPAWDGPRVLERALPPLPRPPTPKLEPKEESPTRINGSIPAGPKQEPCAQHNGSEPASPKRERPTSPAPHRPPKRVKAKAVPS
T1 sequence (Q96SW2 whole entry partner): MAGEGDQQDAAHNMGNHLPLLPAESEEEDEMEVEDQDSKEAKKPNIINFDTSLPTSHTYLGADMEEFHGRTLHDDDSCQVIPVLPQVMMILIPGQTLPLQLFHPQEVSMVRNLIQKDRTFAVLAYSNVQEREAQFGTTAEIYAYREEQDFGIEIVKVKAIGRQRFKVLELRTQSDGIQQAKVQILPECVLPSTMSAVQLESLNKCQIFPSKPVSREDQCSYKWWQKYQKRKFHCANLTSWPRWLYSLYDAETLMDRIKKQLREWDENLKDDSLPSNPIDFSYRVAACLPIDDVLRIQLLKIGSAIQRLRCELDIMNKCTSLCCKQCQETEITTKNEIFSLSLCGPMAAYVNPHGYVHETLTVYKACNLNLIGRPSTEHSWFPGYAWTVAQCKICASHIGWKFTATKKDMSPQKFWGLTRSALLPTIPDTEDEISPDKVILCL

[8] = biological target: T1, Protein cereblon/NAD-dependent protein deacylase sirtuin-6; assay: PROTAC activity at CRBN/SIRT6 in human Huh-7 cells assessed as induction of SIRT6 degradation at 1 uM incubated for 24 hrs by Western blot analysis; format: cell-based
[9] = Toxicity in BALB/c nude mouse xenografted with human SK-HEP1 cells assessed as pathological damage in kidney at 10 mg/kg treated for 28 to 30 days under irradiation (3 Gy) by H and E staining based analysis; format: organism-based; details: in vivo, time 28-30 day
Huh-7 [10] = assay: Inhibition of colony formation in human Huh-7 cells at 5 to 10 uM incubated for 10 to 14 days with replacement of medium containing compounds on every 3 days by crystal violet staining based analysis; format: functional, cell-based; details: dose 5-10 µM, time 10-14 day
[11] = biological target: T1, Protein cereblon/NAD-dependent protein deacylase sirtuin-6; assay: PROTAC activity at CRBN/SIRT6 in human SK-HEP1 cells assessed as disruption of CHD4 recruitment to DSB sites at 2.5 uM incubated for 36 hrs followed by irradiation (10 Gy) treatment for 4 hrs by Western blot analysis; format: cell-based; details: time 40.0 hrs
[12] = biological target: T1, Protein cereblon/NAD-dependent protein deacylase sirtuin-6; assay: PROTAC activity at CRBN/SIRT6 in human SK-HEP1 cells assessed as reduction in number of SIRT6 foci incubated for about 36 hrs by immunofluorescence based analysis; format: cell-based; details: dose <= 5.0 µM
[13] = biological target: T1, Protein cereblon/NAD-dependent protein deacylase sirtuin-6; assay: PROTAC activity at CRBN/SIRT6 in human Huh-7 cells assessed as induction of SIRT6 degradation upto 10 uM incubated for 36 hrs by Western blot analysis relative to control; format: cell-based
[14] = biological target: T1, Protein cereblon/NAD-dependent protein deacylase sirtuin-6; assay: In vivo PROTAC activity of CRBN/SIRT6 in human SK-HEP1 cells xenografted in BALB/c nude mouse assessed as induction of SIRT6 degradation at 10 mg/kg treated for 28 to 30 days under irradiation (3 Gy); format: functional, organism-based; details: time 28-30 day
SK-HEP1 [15] = assay: Effect of SIRT2 mRNA expression in human SK-HEP1 cells at 2.5 uM incubated for 36 hrs by RT-qPCR analysis; format: functional, cell-based
SK-HEP1 [16] = assay: Antitumor activity against human SK-HEP1 cells xenografted in BALB/c nude mouse at 10 mg/kg treated for 28 to 30 days relative to control; format: functional; details: time 28-30 day
[17] = Toxicity in BALB/c nude mouse xenografted with human SK-HEP1 cells assessed as pathological damage in spleen at 10 mg/kg treated for 28 to 30 days under irradiation (3 Gy) by H and E staining based analysis; format: organism-based; details: in vivo, time 28-30 day
[18] = Toxicity in BALB/c nude mouse xenografted with human SK-HEP1 cells assessed as histopathological abnormalities in spleen at 10 mg/kg treated for 28 to 30 days under irradiation (3 Gy) by H and E staining based analysis; format: organism-based; details: in vivo, time 28-30 day
[19] = Toxicity in BALB/c nude mouse xenografted with human SK-HEP1 cells assessed as pathological damage in liver at 10 mg/kg treated for 28 to 30 days by H and E staining based analysis; format: organism-based; details: in vivo, time 28-30 day
SK-HEP1 [20] = assay: Effect of genes related to mitochondrial matrix in human SK-HEP1 cells at 2.5 uM incubated for 36 hrs by GSEA analysis; format: functional, cell-based
SK-HEP1 [21] = assay: Inhibition of colony formation in human SK-HEP1 cells at 2.5 uM incubated for 10 to 14 days with replacement of medium containing compounds on every 3 days in presence of sorafenib by crystal violet staining based analysis; format: functional, cell-based; details: time 10-14 day
[22] = biological target: T1, Protein cereblon/NAD-dependent protein deacylase sirtuin-6; assay: PROTAC activity at CRBN/SIRT6 in human SK-HEP1 cells assessed as induction of SIRT6 degradation at 2 to 3 uM incubated for 36 hrs by Western blot analysis; format: cell-based; details: dose 2-3 µM
SK-HEP1 [23] = assay: Synergistic antitumor activity against human SK-HEP1 cells xenografted in BALB/c nude mouse at 10 mg/kg treated for 28 to 30 days in presence of sorafenib relative to control; format: functional; details: time 28-30 day
Huh-7 [24] = assay: Effect on SIRT7 expression in human Huh-7 cells at 0.002 to 1 uM incubated for 36 hrs by Western blot analysis; format: functional, cell-based; details: dose 0.002-1 µM
SK-HEP1 [25] = assay: Effect of SIRT7 mRNA expression in human SK-HEP1 cells at 2.5 uM incubated for 36 hrs by RT-qPCR analysis; format: functional, cell-based
[26] = Toxicity in BALB/c nude mouse xenografted with human SK-HEP1 cells assessed as histopathological abnormalities in spleen at 10 mg/kg treated for 28 to 30 days in presence of sorafenib by H and E staining based analysis; format: organism-based; details: in vivo, time 28-30 day
[27] = biological target: T1, Protein cereblon/NAD-dependent protein deacylase sirtuin-6; assay: PROTAC activity at CRBN/SIRT6 in human SK-HEP1 cells assessed as reduction in density of SIRT6 foci incubated for about 36 hrs by immunofluorescence based analysis; format: cell-based; details: dose <= 5.0 µM
SK-HEP1 [28] = assay: Downregulation of NAIF1 expression in human SK-HEP1 cells at 2.5 uM incubated for 36 hrs; format: functional, cell-based
SK-HEP1 [29] = assay: Effect of TFRC mRNA expression in human SK-HEP1 cells at 2.5 uM incubated for 36 hrs by RNA sequencing analysis; format: functional, cell-based
SK-HEP1 [30] = assay: Downregulation of NAIF1 expression in human SK-HEP1 cells at 2.5 uM incubated for 36 hrs in presence of MLN4924; format: functional, cell-based
SK-HEP1 [31] = assay: Effect of SIRT6 mRNA expression in human SK-HEP1 cells at 2.5 uM incubated for 36 hrs by RNA sequencing analysis; format: functional, cell-based
[32] = biological target: T1, Protein cereblon/NAD-dependent protein deacylase sirtuin-6; assay: PROTAC activity at CRBN/SIRT6 in human SK-HEP1 cells assessed as disruption of CHD4 recruitment to DSB sites at 2.5 uM incubated for 36 hrs followed by VP16 treatment for 4 hrs by Western blot analysis; format: cell-based; details: time 40.0 hrs
SK-HEP1 [33] = assay: Effect of genes related to protein heterodimerization in human SK-HEP1 cells at 2.5 uM incubated for 36 hrs by GSEA analysis; format: functional, cell-based

Activity [11]: Active
Activity [12]: Dose-dependent-effect
Emax [13]: 91.8%
Activity [14]: Active
Activity [22]: Active
Activity [27]: Dose-dependent-effect
Activity [32]: Active
Structure (SMILES): Nc1cc(N2CCN(CC3CCN(c4cc5c(cc4F)C(=O)N(C4CCC(=O)NC4=O)C5=O)CC3)CC2)ccc1[N+](=O)[O-] (stereo not drawn)
Activity (SK-HEP1 [1]): Active
Activity [2]: Non-toxic
Activity (SK-HEP1 [3]): Active
Activity [4]: Non-toxic
Activity [5]: Non-toxic
Activity (SK-HEP1 [6]): inactive
Activity [7]: Not active; Confirms That Proteosome Is Necessary For Sirt6 Degradation
Activity [8]: Active; Reached A Plateau After 36 Hrs Of Treatment
Activity [9]: Non-toxic
inhibition (Huh-7 [10]): Active
Activity (SK-HEP1 [15]): No effect
T/C (SK-HEP1 [16]): 39.6%
Activity [17]: Non-toxic
Activity [18]: Non-toxic
Activity [19]: Non-toxic
Activity (SK-HEP1 [20]): Active
inhibition (SK-HEP1 [21]): Active; Exhibited Superior To Compound Alone
T/C (SK-HEP1 [23]): 18.2%
Activity (Huh-7 [24]): No effect
Activity (SK-HEP1 [25]): No effect
Activity [26]: Non-toxic
Activity (SK-HEP1 [28]): Active
Activity (SK-HEP1 [29]): Active
Activity (SK-HEP1 [30]): inactive
Activity (SK-HEP1 [31]): No effect; The Mrna Level Did Not Markedly Change
Activity (SK-HEP1 [33]): Active
